# In patent publication US20080254439A1, “Plant Extract and Use Thereof as a Cryoprotective Agent” (priority 2005, published 2008):
# Legend:
# [1] = test system: isolated rat hepatocytes; experiment: Viability of suspensions of rat hepatocytes after freezing, calcein/PI test by flow cytometry; type: cell-based; settings: 7 days of freezing; 1.5×10^6 cells/ml; 20 mg protein/extract or 15% DMSO in WME; FIG. 1
# Method: Hepatocytes were isolated from male Sprague-Dawley rats (120-180 g), obtained from Charles River Canada (Saint-Constant, QC), in a two-step collagenase digestion technique (13; 14). […] Cell viability was evaluated by flow cytometry (FACScan™, Becton Dickinson, Oakville, ON) with 2 μM PI (16).
# Cryopreservation of isolated hepatocytes. Immediately after isolation, the hepatocyte suspension was added to a mixture of ice-cold WME medium supplemented with 10% FBS and non-acclimated (NA) or CA wheat protein extracts (WPEs) in cold cryovials. […] The tubes containing cells were then frozen at a cooling rate of 1° C./min in a controlled freezing container (Nalgene, Rochester, N.Y.) to −80° C. for one day, and then transferred to liquid nitrogen.
# Viability assays. After freeze/thaw cycles, hepatocyte suspensions were stained with the fluorescent probes 4 μM calcein and 2 μM PI in WME medium for 5 minutes. The samples were analyzed by flow cytometry (excitation at 488 nm) using a Becton Dickinson FACScan™. The number of live cells expressing green fluorescence of calcein and the number of dead cells expressing red fluorescence of PI were determined with Cell Quest™ software (Becton Dickinson, Oakville, ON).
# [2] = test system: rat hepatocytes; experiment: Viability of seeded thawed hepatocytes by LDH release; type: cell-based; settings: after 24 h in culture; cryopreserved 7 days; FIG. 2
# [3] = test system: rat hepatocytes; experiment: Plating efficiency by LDH activity; type: cell-based; settings: culture period 3 hours
# Method: Thawing of cryopreserved hepatocytes. The frozen hepatocytes were thawed quickly by gentle agitation in a 37° C. water bath. Viability assays were performed on the hepatocyte suspension. For adherence and metabolic assays, the hepatocyte suspension was diluted 10-fold by addition of cold WME medium, immediately after thawing. […] After centrifugation (4° C., 50 g, 2 min), hepatocytes were suspended in 10 ml of WME medium. Hepatocytes were washed twice as above, then suspended at 3.5×10^5/ml in WME and cultured in tissue culture plates in WME medium supplemented with insulin and gentamicin in a humidified atmosphere of 5% CO2 and 95% air at 37° C. After 3 h, the medium was changed and cells were incubated overnight in L-15 medium supplemented with insulin and gentamicin. Plating efficiency. Plating efficiency was determined by measuring the LDH activity in cells prior to seeding and in 3 and 24 h-old cultures. Plating efficiency was defined as the LDH activity in 24 h-old cultures divided by the LDH activity in pre-culture cells.
# [4] = test system: rat hepatocytes; experiment: Adherence and cellular morphology by confocal microscopy; type: cell-based; settings: 24 h after seeding, FIG. 3
# Method: Adherence and cellular morphology. Adherence and cellular morphology were evaluated by confocal microscopy. For the confocal microscopy observations, tissue culture plates coated with collagen were used. All analyses were carried out using the confocal microscope MRC1024 from BioRad (Microscience, Cambridge, Mass.) equipped with an argon laser (excitation at 488 nm) combined with an inverted microscope Eclipse Model TE 3000 (Nikon, Montreal, QC) with objectives of 40× Hoffman.
# [5] = test system: rat hepatocytes; experiment: Albumin secretion by sandwich ELISA; type: cell-based; settings: after 4 days in culture; FIG. 4A
# Method: Determination of albumin secretion. Albumin secretion from hepatocytes was quantified every 24 h, until 96 h, in different hepatocyte culture media by the sandwich enzyme-linked immunosorbent assay (ELISA) according to Uotila et al. (19), with minor modifications (20). Briefly, 96-well plates (Nunc, Napierville, Ill.) were coated with anti-rat albumin rabbit antiserum (1 μg/ml). The plates were incubated for 30 min at room temperature (RT), then at 4° C. overnight, washed with phosphate buffered saline (PBS), blocked for 30 min at RT with 5% FBS in PBS, and then rewashed with PBS. Serial dilutions of sample and albumin standard were added (200 μl/well). The plates were incubated for III at RT and washed with PBS supplemented with 0.05% Tween-20 (PBS-T). Thereafter, the secondary antibody (peroxidase-conjugated anti-rat albumin; 2 μg/ml) was added and the plates were incubated for 1 h at RT. After 3 washings with PBS-T, the plates were incubated with the substrate o-phenylendiamine (OPND) (0.1 M NaH2PO4, 1 mg/ml OPND, 0.4 μl/ml H2O2) for 30 min at RT in the dark. The reaction was stopped with 4 M H2SO4. Albumin concentrations were determined at 550 nm using a standard curve ranging from 0 to 250 ng/dl of rat albumin using an ELISA reader ([sequence]luor Plus™, Tecan, Calif.).
# [6] = test system: rat hepatocytes; experiment: Ammonium detoxification to urea (urea determination); type: cell-based; settings: after 4 days in culture; FIG. 4B
# Method: Urea determination. To evaluate the hepatocyte-mediated biotransformation of ammonia to urea, seeded hepatocytes were exposed to L-15 culture medium containing 10 mM NH4Cl. Samples of media were collected at the beginning and after 24 h intervals of exposure to ammonia, during 3 days. Urea concentration in the samples was measured calorimetrically using the urea nitrogen reagent set (BioTron Diagnostics, Hemet, Calif.) and an ELISA reader at 540 nm. Concentrations of urea were determined using a standard curve ranging from 0 to 45 mg/dl of urea. The results are presented as μg urea/10^6 cells.
# [7] = test system: CYP1A1; experiment: EROD assay after 24 h induction with benzo-a-pyrene in cryopreserved hepatocytes; type: cell-based, rat; settings: 48 h after seeding, FIG. 5A
# Method: (§1) Enzymatic activity and protein expression of cytochrome P450 isoforms. CYP1A1 and 2B enzymatic activities were measured in hepatocyte cultures induced with benzo-a-pyrene (10 μM). Cells were washed 2 times with PBS and the substrates EROD (8 μM) or PROD (17 μM) (λexc: 530 nm; λem: 585 nm) were added to the culture dishes and incubated for 1 h. The supernatant (300 μl) was mixed with 200 μl of ETOH and the activity in 200 μl of the mixture was measured using an ELISA reader at 585 nm. Enzymatic activity was determined using a standard curve ranging from 0 to 200 μM of resorufin.
# [8] = test system: CYP2B; experiment: PROD assay after 24 h induction with benzo-a-pyrene in cryopreserved hepatocytes; type: cell-based, rat; settings: 48 h after seeding, FIG. 5A
# Method: as §1
structure (smiles),measurement,setting,value
"C[S+](C)[O-] [DMSO, dimethyl sulfoxide]",Viability of rat hepatocytes after freezing,[1],62.5%
same,Viability (LDH) of thawed hepatocytes in culture,[2],60.2%
same,Plating efficiency,[3],64.9 ± 1.7%
same,Cell-to-cell contacts,[4],no cell-cell contacts were detected
same,Albumin secretory activity maintained,[5],48%
same,Initial detoxification activity maintained (urea production),[6],16%
same,Relative activity of P450 CYP1A1 compared to fresh hepatocytes,[7],decreased slightly
same,Relative activity of P450 CYP2B compared to fresh hepatocytes,[8],decreased slightly
